This is an account of results in article PMC6155239, “Targeting PFKFB3 radiosensitizes cancer cells and suppresses homologous recombination” (Nature Communications, 2018).

For assay [1], the target named is T1, FAK (Homo sapiens, UniProt Q05397).
T1 construct: purchased DiscoverX (Eurofins) KINOMEscan / scanEDGE, inferred from the naming style
Put plainly: KINOMEscan. It counts as binding. The settings on record: 2000 nM; read-out: Percent Control.

For assay [2], the target named is T2, CDK11 (Homo sapiens, UniProt Q9BWU1).
T2 construct: purchased DiscoverX (Eurofins) KINOMEscan / scanEDGE, inferred from the naming style
Put plainly: KINOMEscan. The settings on record: 2000 nM; read-out: Percent Control. The assay is classed as binding.

In assay [3] the target is T3, CDK3 (Homo sapiens, UniProt Q00526).
T3 construct: purchased DiscoverX (Eurofins) KINOMEscan / scanEDGE, inferred from the naming style
T3 sequence (Q00526 whole entry): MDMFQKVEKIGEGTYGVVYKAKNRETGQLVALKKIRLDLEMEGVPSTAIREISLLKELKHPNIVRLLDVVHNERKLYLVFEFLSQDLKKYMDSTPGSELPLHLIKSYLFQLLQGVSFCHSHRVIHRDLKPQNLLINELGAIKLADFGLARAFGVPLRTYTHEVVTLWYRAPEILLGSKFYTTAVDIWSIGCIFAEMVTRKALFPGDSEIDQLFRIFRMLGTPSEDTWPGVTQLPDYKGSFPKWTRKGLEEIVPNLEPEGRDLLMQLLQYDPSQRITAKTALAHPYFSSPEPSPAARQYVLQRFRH
Put plainly: KINOMEscan. The assay is classed as binding. The settings on record: 2000 nM; read-out: Percent Control.

Assay [4] addresses T4, AURKB (Homo sapiens, UniProt Q96GD4).
T4 construct: purchased DiscoverX (Eurofins) KINOMEscan / scanEDGE, inferred from the naming style
Put plainly: KINOMEscan. It counts as binding. Conditions: 2000 nM; read-out: Percent Control.

The target of assay [5] is T5, CDK7 (Homo sapiens, UniProt P50613).
T5 construct: purchased DiscoverX (Eurofins) KINOMEscan / scanEDGE, inferred from the naming style
T5 sequence (P50613 whole entry): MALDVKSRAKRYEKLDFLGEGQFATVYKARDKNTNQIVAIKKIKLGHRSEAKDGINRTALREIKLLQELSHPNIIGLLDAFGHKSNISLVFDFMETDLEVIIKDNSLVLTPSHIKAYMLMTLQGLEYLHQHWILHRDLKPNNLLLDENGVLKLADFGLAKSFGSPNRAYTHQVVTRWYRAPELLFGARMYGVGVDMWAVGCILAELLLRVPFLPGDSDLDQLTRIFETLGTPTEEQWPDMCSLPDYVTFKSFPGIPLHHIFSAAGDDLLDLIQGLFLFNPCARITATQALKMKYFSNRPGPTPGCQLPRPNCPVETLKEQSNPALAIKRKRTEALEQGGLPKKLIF
The experiment in a line: KINOMEscan. It counts as binding. The settings on record: 2000 nM; read-out: Percent Control.

The target in assay [6] is T6, BRAF(V600E) (Homo sapiens, UniProt P15056, V600E).
T6 construct: purchased DiscoverX (Eurofins) KINOMEscan / scanEDGE, inferred from the naming style
Put plainly: KINOMEscan. The assay is classed as binding. The settings on record: 2000 nM; read-out: Percent Control.

The target in assay [7] is T7, GSK3B (Homo sapiens, UniProt P49841).
T7 construct: purchased DiscoverX (Eurofins) KINOMEscan / scanEDGE, inferred from the naming style
T7 sequence (P49841 whole entry): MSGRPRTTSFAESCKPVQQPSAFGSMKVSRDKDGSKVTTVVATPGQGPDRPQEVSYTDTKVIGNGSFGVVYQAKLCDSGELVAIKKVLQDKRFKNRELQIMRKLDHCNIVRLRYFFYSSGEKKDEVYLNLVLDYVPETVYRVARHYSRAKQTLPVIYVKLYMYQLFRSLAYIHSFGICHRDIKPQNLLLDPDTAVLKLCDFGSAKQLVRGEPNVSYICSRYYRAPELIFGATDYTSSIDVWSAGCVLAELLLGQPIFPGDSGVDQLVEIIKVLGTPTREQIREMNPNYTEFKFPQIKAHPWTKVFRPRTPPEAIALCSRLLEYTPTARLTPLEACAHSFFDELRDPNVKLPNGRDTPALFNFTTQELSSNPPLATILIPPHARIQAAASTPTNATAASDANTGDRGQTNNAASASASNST
Put plainly: KINOMEscan. Conditions: 2000 nM; read-out: Percent Control. It counts as binding.

Assay [8] concerns the target T8, CSF1R (Homo sapiens, UniProt P07333).
T8 construct: purchased DiscoverX (Eurofins) KINOMEscan / scanEDGE, inferred from the naming style
Put plainly: KINOMEscan. Conditions: 2000 nM; read-out: Percent Control. It counts as binding.

Assay [9] deals with T9, FGFR3 (Homo sapiens, UniProt P22607).
T9 construct: purchased DiscoverX (Eurofins) KINOMEscan / scanEDGE, inferred from the naming style
T9 sequence (P22607 23-806): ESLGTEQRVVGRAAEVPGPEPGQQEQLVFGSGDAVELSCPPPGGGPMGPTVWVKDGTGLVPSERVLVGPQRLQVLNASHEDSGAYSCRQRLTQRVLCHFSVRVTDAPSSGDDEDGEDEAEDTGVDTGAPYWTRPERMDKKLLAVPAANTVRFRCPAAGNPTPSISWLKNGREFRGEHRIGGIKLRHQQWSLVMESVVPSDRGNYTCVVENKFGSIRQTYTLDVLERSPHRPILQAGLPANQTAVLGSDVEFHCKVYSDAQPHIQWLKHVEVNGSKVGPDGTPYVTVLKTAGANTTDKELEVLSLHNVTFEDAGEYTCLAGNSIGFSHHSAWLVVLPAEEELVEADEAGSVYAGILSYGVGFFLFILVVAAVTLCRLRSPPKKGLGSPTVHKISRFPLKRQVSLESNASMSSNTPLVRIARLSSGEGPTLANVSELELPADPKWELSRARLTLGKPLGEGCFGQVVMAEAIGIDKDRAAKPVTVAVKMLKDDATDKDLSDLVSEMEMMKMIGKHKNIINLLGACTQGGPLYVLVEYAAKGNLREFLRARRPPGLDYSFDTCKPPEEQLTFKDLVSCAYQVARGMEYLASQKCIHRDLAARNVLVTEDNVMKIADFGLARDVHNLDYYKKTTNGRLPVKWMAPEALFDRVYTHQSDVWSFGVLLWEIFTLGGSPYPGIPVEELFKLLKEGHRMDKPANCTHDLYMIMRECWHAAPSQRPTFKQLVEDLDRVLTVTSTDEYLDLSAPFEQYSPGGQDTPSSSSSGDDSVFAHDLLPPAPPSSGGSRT
The experiment in a line: KINOMEscan. The assay is classed as binding. The settings on record: 2000 nM; read-out: Percent Control.

For assay [10], the target named is T10, BMPR2 (Homo sapiens, UniProt Q13873).
T10 construct: purchased DiscoverX (Eurofins) KINOMEscan / scanEDGE, inferred from the naming style
T10 sequence (Q13873 27-1038): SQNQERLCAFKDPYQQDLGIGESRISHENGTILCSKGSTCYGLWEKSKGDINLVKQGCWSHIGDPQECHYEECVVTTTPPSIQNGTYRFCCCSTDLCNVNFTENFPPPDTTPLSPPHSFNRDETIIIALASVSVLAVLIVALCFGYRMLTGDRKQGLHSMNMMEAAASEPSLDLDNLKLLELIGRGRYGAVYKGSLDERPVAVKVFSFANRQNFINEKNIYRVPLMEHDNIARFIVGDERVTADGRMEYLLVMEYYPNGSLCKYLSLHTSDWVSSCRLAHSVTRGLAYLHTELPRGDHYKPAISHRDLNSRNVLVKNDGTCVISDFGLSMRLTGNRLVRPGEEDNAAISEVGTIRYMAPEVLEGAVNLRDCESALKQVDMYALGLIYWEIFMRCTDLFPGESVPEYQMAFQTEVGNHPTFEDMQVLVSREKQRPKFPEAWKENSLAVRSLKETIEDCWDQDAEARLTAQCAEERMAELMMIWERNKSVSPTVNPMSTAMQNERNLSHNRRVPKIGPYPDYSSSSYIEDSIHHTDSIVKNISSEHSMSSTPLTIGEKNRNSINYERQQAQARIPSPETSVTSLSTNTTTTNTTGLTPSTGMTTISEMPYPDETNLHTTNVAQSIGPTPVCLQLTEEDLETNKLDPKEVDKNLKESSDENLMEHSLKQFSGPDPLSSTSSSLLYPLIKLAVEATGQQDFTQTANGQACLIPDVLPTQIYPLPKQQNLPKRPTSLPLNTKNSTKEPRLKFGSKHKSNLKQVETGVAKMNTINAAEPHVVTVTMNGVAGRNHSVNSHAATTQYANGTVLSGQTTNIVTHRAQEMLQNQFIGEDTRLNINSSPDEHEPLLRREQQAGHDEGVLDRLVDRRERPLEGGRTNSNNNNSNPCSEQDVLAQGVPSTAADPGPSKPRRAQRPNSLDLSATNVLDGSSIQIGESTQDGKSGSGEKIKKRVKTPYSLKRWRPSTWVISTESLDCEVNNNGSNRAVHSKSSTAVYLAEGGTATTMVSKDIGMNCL
Put plainly: KINOMEscan. The assay is classed as binding. Conditions: 2000 nM; read-out: Percent Control.

Assay [11] has as its target T11, CSNK1G2 (Homo sapiens, UniProt P78368).
T11 construct: purchased DiscoverX (Eurofins) KINOMEscan / scanEDGE, inferred from the naming style
The experiment in a line: KINOMEscan. It counts as binding. Conditions: 2000 nM; read-out: Percent Control.

Assay [12] deals with T12, ERBB4 (Homo sapiens, UniProt Q15303).
T12 construct: purchased DiscoverX (Eurofins) KINOMEscan / scanEDGE, inferred from the naming style
Put plainly: KINOMEscan. The assay is classed as binding. Conditions: 2000 nM; read-out: Percent Control.

For assay [13], the target named is T13, AKT2 (Homo sapiens, UniProt P31751).
T13 construct: purchased DiscoverX (Eurofins) KINOMEscan / scanEDGE, inferred from the naming style
T13 sequence (P31751 whole entry): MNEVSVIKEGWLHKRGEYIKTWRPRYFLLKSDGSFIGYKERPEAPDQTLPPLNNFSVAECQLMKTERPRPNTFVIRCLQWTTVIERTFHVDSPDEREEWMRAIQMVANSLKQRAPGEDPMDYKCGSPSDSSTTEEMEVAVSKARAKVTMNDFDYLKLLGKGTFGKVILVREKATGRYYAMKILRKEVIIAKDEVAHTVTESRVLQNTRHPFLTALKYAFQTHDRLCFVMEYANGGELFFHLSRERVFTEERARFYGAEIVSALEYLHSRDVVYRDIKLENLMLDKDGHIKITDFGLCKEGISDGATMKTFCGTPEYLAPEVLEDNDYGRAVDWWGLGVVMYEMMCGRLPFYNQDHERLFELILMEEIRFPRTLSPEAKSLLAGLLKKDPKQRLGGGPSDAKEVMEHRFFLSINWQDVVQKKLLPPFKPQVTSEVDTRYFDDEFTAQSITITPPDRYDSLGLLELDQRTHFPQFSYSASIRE
Put plainly: KINOMEscan. The assay is classed as binding. Conditions: 2000 nM; read-out: Percent Control.

Assay [14] addresses T14, ABL1-nonphosphorylated (Homo sapiens, UniProt P00519).
T14 construct: purchased DiscoverX (Eurofins) KINOMEscan / scanEDGE, inferred from the naming style
Put plainly: KINOMEscan. It counts as binding. Conditions: 2000 nM; read-out: Percent Control.

The subject of assay [15] is U2OS cells. Put plainly: Intracellular dNTP measurement (HIV-1 RT-based). The settings on record: 4 h and 24 h, relative to DMSO. The assay is classed as cell-based. The protocol:
HIV-1 RT-based dNTP assay[55] was used to quantify dNTP levels in U2OS cells upon indicated treatment and time points. Briefly, cells were trypsinized and counted before dNTPs extraction by 60% methanol solution, the dried dNTP samples were resuspended with water, and then RT-based primer extension reaction was performed to determine the amounts of dNTPs. Obtained dNTP amounts were normalized to 1 × 10^6 cells, and dNTP levels were related to control treatment with DMSO.

Assay [16] deals with PFKFB3 (Homo sapiens, UniProt Q16875). Put plainly: Cellular thermal shift assay (CETSA) in U2OS cells. The assay is classed as cell-based. Conditions: 10 µM. On the procedure:
U2OS cells in exponential growth rate were treated with indicated inhibitors at a concentration of 10 μM or DMSO for 6, 24, or 72 h and then harvested using trypsin, upon detachment trypsinization was inhibited by addition of cell media and cells spun down at 200 × g for 10 min at 4 °C. The pellet was resuspended in TBS (50 mM Tris–HCl (pH 7.5) and 150 mM NaCl) supplemented with protease inhibitors (Roche), cells were lysed by a freeze–thaw circle three times at −80 °C for 3 min and then 37 °C for 3 min. Debris was removed by centrifugation at 16,000 × g for 20 min at 4 °C, cell lysates were aliquoted and heated to indicated temperatures for 3 min. Insoluble proteins were then removed by centrifugation at 16,000 × g at 4 °C for 20 min, supernatant was transferred to new tubes and protein concentration was determined using BCA assay (Pierce). Western blot was performed according to standard procedures.

The subject of assay [17] is U2OS cells. The experiment in a line: IR-induced RAD51 / RPA32 foci, confocal. The assay is classed as cell-based. Conditions: in combination with IR. On the procedure:
Cells were grown on sterilized coverslips and fixed with 4% paraformaldehyde (PFA) (Santa Cruz) and 2% sucrose (Sigma Aldrich) for 15 min at room temperature. They were then permeabilized with 0.2% NP-40 (Thermo Scientific) for 10 min at room temperature followed by 30 min of blocking in blocking buffer (2 or 3% BSA, 5% glycerol, 0.1% Tween 20 (Sigma Aldrich)). Coverslips were subsequently incubated for 1, 2, or 24 h in primary antibody and 40 min in secondary antibody diluted in blocking buffer, DNA was stained with DAPI for 10 min. The coverslips were mounted with Prolonged Gold mounting medium (Invitrogen). Images were acquired with a Zeiss LSM 780 microscope using a 40× or 63× oil immersion lens and processed in ImageJ and CellProfiler.
To visualize PFKFB3, RPA32, RAD51, BRCA1, 53BP1, and RRM2 IRIF, the cells were first washed with PBS and then incubated for 5 min at room temperature with cytoskeleton (CSK) buffer containing 10 mM PIPES pH 7.0 (Sigma Aldrich), 100 mM NaCl (EMD Millipore), 300 mM sucrose (Sigma Aldrich), 3 mM MgCl2 (Sigma Aldrich), and 0.7% Triton X-100 (Sigma Aldrich). After these treatments, the cells were washed once again with PBS and then fixed in 4% PFA with 2% sucrose.

Assay [18] concerns U2OS cells. Put plainly: EdU labeling (DNA synthesis). The assay is classed as cell-based. Conditions: absence of IR. On the procedure:
U2OS cells were seeded on sterilized slides and treated with 10 or 30 μM of 757 for 6 h, or 2 mM of hydroxyurea (HU) for 3 h (DMSO was used as control vehicle). Last 40 min of treatment, 10 μM of the thymidine analogue 5-ethynyl-2′-deoxyuridine (EdU) (Sigma Aldrich, catalog no. 1T511285) was added; cells were washed with PBS and then fixed with paraformaldehyde 4% and sucrose 2%. For the detection of incorporated EdU, the Click IT reaction was performed in accordance with the supplier’s recommendations (Life Technologies/ThermoFisher Scientific). Images were acquired with a Zeiss LSM 780 microscope using a 40× oil immersion lens and processed in ImageJ and CellProfiler (version 2.2.0).

Assay [19] deals with U2OS cells. Put plainly: DNA fiber assay. The assay is classed as cell-based. The settings on record: 10 μM. On the procedure:
1 × 10^5 cells were seeded into 6-well plates, 24 h later cells were treated with the indicated inhibitors or nucleosides, and 24 h later DNA was labeled with 25 μM CldU (Sigma, C6891) in pre-warmed DMEM for 20 min, washed and then labeled with 250 μM IdU (Sigma I7125) in pre-warmed DMEM for 20 min, before harvesting by scraping in cold PBS. Harvested cells were diluted to 1 × 10^6 cells/mL, spreading and staining was performed as described previously described. Fluorescence images were captured using a Zeiss LSM 780 inverted confocal microscope using a 63 × 1.4 oil immersion objective, excitation wavelengths of 488 and 555 nm, and analyzed using the ImageJ software. At least 300 unidirectional forks labeled with both CldU and IdU were measured for every condition.

The test system of assay [20] is U2OS cells. The experiment in a line: EdU incorporation in G2/M phase upon IR, flow cytometry. The assay is classed as cell-based. The settings on record: 10 μM 6 h prior to IR 6 Gy. (A flow cytometer gives signals particle by particle.)

Sequence of PFKFB3 (Q16875 whole entry): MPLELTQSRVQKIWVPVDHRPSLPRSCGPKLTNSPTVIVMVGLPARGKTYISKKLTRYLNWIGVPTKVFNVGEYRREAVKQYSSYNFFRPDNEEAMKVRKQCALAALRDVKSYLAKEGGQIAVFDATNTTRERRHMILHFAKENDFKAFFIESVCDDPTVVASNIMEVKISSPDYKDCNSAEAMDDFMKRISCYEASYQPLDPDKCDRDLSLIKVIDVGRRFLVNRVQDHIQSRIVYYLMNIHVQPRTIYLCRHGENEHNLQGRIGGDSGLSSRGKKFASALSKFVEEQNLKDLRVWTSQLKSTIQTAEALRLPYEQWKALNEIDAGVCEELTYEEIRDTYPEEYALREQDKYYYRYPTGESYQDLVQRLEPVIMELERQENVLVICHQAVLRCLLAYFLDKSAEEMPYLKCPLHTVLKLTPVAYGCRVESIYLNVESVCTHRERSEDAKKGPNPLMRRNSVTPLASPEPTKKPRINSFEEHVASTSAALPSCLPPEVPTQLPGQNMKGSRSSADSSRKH
T11 sequence (P78368 whole entry): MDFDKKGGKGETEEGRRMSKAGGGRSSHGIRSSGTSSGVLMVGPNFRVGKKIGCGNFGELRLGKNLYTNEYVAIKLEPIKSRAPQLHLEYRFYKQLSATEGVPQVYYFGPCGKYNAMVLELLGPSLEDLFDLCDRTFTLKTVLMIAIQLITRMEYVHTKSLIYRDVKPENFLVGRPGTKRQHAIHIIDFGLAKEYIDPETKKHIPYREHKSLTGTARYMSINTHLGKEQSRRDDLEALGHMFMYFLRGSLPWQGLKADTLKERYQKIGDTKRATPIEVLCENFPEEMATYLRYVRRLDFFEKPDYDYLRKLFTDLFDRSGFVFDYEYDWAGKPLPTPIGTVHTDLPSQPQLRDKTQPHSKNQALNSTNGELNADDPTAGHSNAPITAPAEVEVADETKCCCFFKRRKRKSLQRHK
T4 sequence (Q96GD4 whole entry): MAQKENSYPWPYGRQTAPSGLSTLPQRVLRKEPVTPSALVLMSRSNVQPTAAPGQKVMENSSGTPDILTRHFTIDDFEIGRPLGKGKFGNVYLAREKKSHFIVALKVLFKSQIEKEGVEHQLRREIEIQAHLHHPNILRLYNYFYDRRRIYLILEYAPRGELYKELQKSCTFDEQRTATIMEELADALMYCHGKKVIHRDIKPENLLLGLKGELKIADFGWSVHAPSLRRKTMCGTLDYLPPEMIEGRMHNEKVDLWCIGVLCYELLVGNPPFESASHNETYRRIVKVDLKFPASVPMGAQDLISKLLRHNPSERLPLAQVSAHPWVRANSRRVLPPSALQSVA

As to `O=C(O)c1ccc(NS(=O)(=O)c2cccc(-c3cc(F)ccc3O)c2)cc1O` [KAN0438241, 4-{[(5′-Fluoro-2′-hydroxybiphenyl-3-yl)sulfonyl]amino}-2-hydroxybenzoic acid], the remaining binding at 2 µM was determined as 96% in assay [1]; 96% in assay [2]; 97% in assay [3]; 92% in [4]; 93% in [5]; 97% in assay [6]. Further, the remaining binding at 2 µM in assay [7] was found to be 91%; in assay [8], 90%; in assay [9], 95%; in assay [10], 88%; in assay [11], 97%; in assay [12], 96%. Moreover, the remaining binding at 2 µM in assay [13] worked out at 97%; in assay [14], 100%.
On to `O=C(OCCO)c1ccc(NS(=O)(=O)c2cccc(-c3cc(F)ccc3O)c2)cc1O` [KAN0438757, 2-Hydroxyethyl-4-{[(5′-fluoro-2′-hydroxybiphenyl-3-yl)sulfonyl]amino}-2-hydroxybenzoate], for which the “decrease of all four dNTPs” value in [15] is 50–75%. The “intracellular target engagement of PFKFB3 (CETSA)” value in assay [16] is “demonstrated intracellular target engagement”. In addition, the “IR-induced recruitment of RPA32 and RAD51 into repair foci (in words)” value in [17] is given as “disrupted”. Moreover, the “EdU intensity per cell in EdU-positive population (in words)” value in assay [18] is reported as “decreased EdU intensity per cell”. In addition, in assay [19], the “incorporation of CldU and IdU / replication fork speed (in words)” value was “severely decreased”. Moreover, the “IR-induced increase in EdU-positive cell population in G2/M phase (in words)” value in assay [20] is recorded as “impaired”.
